Source: patent publication US20230257347A1 (priority 2020, published 2023)
Structures can show the parent of a compound that is named as a salt. Where two headings read alike, the source gives them in different places.

How the values were obtained:
[1] = target: T1, Adrenergic Receptor α2A (ADRA2A) (Homo sapiens, UniProt P08913); assay: cAMP assay, ADRA2A; assay type: cell-based
T1 sequence (P08913 1-465): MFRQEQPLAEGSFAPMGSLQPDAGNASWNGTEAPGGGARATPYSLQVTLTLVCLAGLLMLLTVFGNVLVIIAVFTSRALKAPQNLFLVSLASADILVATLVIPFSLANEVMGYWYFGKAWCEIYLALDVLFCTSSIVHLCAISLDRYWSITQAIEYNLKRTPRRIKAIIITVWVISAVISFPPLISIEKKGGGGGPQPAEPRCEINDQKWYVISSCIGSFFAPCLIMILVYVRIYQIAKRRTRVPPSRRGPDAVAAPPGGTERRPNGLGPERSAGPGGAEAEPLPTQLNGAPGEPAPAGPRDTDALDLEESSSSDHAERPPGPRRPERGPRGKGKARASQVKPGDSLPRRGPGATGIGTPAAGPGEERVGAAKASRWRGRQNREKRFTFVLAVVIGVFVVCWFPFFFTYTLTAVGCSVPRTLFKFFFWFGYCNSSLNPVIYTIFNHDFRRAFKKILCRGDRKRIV

[2] = target: Cannabinoid Receptor 1 (CNR1) (Homo sapiens, UniProt P21554); assay: cAMP assay, CNR1; assay type: cell-based
Chain of Cannabinoid Receptor 1 (CNR1) (P21554 whole entry): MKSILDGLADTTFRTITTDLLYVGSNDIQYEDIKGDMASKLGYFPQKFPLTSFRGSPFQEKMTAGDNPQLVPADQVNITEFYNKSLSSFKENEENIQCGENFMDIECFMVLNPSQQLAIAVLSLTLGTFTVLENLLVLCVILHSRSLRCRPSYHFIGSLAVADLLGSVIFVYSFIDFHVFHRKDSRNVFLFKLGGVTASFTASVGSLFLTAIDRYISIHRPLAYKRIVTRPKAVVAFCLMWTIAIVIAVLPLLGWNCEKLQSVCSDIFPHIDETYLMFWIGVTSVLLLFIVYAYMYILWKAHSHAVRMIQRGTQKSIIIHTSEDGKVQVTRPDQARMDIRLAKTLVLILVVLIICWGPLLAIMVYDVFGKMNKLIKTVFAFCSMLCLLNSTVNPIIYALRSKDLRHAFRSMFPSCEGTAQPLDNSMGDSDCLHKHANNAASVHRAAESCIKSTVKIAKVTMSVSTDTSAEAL

[3] = target: T2, Muscarinic acetylcholine Receptor M2 (CHRM2) (Homo sapiens, UniProt P08172); assay: cAMP assay, CHRM2; assay type: cell-based
T2 sequence (P08172 1-466): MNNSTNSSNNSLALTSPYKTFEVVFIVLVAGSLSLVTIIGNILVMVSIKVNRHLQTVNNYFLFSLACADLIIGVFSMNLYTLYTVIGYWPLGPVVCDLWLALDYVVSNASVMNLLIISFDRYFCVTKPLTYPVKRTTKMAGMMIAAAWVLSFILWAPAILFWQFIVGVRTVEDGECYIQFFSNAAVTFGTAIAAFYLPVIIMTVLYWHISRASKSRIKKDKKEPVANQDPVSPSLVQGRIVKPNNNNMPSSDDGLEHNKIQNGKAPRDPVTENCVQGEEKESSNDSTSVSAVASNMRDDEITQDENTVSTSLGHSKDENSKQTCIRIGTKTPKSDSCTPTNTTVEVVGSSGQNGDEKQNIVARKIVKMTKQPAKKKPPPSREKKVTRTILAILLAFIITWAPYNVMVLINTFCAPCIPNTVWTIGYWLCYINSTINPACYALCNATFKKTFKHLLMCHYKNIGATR

[4] = target: Opioid Receptor Mu (OPRM1) (Homo sapiens, UniProt P35372); assay: cell-based
[5] = target: Cannabinoid Receptor 2 (CNR2) (Homo sapiens, UniProt P34972); assay: cAMP assay, CNR2; assay type: cell-based
Chain of Cannabinoid Receptor 2 (CNR2) (P34972 whole entry): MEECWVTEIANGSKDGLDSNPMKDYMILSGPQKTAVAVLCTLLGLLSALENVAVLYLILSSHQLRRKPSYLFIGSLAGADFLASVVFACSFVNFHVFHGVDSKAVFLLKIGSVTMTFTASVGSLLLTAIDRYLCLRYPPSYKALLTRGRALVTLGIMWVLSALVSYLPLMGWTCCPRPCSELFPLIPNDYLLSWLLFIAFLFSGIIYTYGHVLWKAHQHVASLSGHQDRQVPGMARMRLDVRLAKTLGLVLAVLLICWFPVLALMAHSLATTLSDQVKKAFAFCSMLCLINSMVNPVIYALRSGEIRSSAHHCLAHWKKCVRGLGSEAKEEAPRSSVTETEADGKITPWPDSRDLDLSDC

[6] = target: T3, Acetylcholinesterase (AChE) (Homo sapiens, UniProt P22303); assay: Enzymatic assay, AChE; assay type: biochemical
T3 construct: purchased R&D Systems

[7] = target: T4, Voltage-gated L-type calcium channel (CAV1.2) (Homo sapiens, UniProt Q13936); assay: Ion channel assay, CAV1.2; assay type: cell-based
T4 construct: expressed in transfected cells
T4 sequence (Q13936 whole entry, looked up): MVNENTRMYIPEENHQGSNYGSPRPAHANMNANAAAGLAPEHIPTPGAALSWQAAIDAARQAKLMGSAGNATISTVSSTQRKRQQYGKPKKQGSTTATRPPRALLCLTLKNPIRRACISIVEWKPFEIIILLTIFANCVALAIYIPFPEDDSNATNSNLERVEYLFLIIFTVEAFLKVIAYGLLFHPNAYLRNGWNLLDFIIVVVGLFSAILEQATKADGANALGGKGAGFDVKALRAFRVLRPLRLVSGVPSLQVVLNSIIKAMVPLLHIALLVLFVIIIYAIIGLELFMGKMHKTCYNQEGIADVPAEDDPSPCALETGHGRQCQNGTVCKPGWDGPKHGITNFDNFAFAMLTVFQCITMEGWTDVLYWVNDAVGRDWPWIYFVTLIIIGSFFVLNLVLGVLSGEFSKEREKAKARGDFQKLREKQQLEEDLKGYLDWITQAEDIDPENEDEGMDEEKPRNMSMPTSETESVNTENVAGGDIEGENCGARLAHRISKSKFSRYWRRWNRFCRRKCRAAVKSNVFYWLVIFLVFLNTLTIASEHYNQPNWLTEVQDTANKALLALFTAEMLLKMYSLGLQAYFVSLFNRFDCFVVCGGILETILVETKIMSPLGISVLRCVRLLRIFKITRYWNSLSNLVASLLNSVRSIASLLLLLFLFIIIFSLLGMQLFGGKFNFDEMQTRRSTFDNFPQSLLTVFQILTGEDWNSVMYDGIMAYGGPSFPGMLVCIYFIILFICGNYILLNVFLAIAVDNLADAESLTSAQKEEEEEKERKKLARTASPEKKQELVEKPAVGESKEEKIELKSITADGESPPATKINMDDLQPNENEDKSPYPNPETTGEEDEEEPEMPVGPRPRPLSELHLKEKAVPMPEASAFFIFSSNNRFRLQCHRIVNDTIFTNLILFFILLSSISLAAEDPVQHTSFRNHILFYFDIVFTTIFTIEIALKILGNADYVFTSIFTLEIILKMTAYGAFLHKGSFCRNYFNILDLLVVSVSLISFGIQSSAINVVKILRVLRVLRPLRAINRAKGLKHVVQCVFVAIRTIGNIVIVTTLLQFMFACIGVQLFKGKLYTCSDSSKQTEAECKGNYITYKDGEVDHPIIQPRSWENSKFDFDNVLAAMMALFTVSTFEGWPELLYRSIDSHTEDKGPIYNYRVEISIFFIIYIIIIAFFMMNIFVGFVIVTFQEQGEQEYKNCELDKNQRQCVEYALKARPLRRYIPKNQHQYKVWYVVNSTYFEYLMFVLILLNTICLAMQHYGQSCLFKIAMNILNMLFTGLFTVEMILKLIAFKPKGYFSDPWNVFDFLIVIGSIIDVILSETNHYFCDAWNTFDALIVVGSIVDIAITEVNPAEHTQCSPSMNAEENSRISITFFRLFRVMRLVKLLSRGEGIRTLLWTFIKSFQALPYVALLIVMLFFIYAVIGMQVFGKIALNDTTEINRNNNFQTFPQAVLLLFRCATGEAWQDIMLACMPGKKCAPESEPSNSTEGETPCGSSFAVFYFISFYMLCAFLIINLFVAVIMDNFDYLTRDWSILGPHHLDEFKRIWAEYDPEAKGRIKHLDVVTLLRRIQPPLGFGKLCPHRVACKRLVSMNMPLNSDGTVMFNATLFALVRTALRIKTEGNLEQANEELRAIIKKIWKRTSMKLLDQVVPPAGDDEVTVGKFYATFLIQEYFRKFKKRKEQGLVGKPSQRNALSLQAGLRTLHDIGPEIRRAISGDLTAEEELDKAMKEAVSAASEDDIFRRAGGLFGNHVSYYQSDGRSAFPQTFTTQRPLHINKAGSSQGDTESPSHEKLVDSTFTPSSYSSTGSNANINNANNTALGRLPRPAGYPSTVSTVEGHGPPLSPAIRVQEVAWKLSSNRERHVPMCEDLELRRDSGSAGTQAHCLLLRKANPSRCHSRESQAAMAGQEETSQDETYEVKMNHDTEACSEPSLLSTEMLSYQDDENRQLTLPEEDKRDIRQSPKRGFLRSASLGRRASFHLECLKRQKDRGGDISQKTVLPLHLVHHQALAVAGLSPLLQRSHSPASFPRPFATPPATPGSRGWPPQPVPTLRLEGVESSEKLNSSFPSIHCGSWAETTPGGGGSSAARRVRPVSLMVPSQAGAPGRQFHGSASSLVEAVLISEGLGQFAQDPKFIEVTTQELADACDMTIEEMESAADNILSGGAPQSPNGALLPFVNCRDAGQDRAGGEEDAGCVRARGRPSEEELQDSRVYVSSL

KvLQT1/minK = target: T5, KvLQT1/minK (Homo sapiens, UniProt P15382+P51787); assay: Ion channel assay, KvLQT1/minK; assay type: cell-based
T5 construct: expressed in transfected cells

[8] = target: T6, Nicotinic acetylcholine Receptor α4 β2 (nAChR(a4/b2)) (Homo sapiens, UniProt P17787+P43681); assay: cell-based
T6 construct: expressed in transfected cells
T6 sequence (P43681 29-627 limits assumed): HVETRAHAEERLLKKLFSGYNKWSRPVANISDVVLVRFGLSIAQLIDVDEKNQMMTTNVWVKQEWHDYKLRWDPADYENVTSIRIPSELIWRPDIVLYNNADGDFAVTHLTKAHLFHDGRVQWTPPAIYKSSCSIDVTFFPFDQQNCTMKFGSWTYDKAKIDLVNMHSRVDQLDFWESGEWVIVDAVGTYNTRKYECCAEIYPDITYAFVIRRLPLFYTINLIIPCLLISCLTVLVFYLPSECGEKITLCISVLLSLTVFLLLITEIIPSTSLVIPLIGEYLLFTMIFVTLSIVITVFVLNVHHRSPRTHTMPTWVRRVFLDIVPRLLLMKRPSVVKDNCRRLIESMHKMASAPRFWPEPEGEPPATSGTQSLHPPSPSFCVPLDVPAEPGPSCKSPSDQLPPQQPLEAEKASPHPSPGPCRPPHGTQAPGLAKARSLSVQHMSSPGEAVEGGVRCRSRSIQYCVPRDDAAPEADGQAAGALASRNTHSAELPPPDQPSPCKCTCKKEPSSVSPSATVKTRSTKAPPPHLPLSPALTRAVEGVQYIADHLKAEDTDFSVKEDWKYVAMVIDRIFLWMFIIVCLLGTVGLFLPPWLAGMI
T6 sequence (P17787 26-502): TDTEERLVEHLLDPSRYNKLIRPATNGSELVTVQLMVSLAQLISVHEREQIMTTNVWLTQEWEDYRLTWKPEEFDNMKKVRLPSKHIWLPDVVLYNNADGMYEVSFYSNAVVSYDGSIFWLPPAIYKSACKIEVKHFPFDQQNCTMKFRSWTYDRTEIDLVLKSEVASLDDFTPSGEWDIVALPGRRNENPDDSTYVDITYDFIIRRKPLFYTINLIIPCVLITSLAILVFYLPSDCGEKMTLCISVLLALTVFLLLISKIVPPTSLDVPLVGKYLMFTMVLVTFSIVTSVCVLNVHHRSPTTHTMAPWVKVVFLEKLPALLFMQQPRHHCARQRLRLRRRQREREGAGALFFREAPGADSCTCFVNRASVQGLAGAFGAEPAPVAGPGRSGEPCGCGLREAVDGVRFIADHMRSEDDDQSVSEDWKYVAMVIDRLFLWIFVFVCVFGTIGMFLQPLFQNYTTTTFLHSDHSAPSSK

[9] = target: Histamine Receptor H1 (HRH1) (Homo sapiens, UniProt P35367); assay: cell-based
Chain of Histamine Receptor H1 (HRH1) (P35367 whole entry): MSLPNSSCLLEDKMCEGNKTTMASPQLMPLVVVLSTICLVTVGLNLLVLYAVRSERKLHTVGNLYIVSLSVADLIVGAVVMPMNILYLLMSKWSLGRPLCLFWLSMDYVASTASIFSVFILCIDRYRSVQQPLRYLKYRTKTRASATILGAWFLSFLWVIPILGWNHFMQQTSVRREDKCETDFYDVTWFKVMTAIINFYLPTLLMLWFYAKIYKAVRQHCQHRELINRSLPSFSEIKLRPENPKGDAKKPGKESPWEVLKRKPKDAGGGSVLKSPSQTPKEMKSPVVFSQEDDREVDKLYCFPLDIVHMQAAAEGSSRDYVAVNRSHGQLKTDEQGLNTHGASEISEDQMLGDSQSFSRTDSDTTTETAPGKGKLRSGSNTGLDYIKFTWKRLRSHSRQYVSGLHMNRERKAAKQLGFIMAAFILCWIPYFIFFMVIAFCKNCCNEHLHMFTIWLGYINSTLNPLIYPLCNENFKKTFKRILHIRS

[10] = target: Adenosine Receptor A2A (ADORA2A) (Homo sapiens, UniProt P29274); assay: Calcium flux assay, ADORA2A; assay type: cell-based
Chain of Adenosine Receptor A2A (ADORA2A) (P29274 whole entry): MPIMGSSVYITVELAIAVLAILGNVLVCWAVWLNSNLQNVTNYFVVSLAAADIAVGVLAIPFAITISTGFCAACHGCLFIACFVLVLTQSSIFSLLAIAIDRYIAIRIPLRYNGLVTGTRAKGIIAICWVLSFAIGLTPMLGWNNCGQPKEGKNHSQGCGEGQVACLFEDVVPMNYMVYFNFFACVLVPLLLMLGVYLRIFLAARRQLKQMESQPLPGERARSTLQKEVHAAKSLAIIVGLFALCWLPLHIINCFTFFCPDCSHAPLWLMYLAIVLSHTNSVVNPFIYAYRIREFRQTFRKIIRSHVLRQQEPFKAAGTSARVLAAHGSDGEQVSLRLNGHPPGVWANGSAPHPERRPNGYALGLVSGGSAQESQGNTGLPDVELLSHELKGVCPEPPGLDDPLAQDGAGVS

[11] = target: T7, Monoamine oxidase type A (MAOA) (Homo sapiens, UniProt P21397); assay: Enzymatic assay, MAOA (kynuramine substrate); assay type: biochemical
T7 construct: purchased Sigma
T7 sequence (P21397 1-527): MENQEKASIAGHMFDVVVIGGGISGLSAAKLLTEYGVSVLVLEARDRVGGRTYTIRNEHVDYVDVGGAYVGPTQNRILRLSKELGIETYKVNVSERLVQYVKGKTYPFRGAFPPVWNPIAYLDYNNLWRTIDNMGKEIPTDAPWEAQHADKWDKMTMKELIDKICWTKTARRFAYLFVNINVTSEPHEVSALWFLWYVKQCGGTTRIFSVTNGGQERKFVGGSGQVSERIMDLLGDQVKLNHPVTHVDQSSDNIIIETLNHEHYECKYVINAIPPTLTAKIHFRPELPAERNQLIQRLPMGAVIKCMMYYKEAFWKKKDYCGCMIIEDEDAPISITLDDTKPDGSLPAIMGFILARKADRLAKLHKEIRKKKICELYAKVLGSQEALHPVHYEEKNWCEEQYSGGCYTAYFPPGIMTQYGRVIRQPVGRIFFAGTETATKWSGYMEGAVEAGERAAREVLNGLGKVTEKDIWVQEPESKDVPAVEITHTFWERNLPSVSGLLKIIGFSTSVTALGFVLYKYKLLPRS

[12] = target: NAV1.5 (tetrodotoxin-resistant voltage-gated sodium channel) (Homo sapiens, UniProt Q14524); assay: cell-based
[13] = target: T8, CAMP-specific 3′,5′-cyclic phospho-diesterase (PDE4D2) (Homo sapiens, UniProt Q08499); assay: Enzymatic assay, PDE4D2; assay type: biochemical
T8 construct: purchased Signal Chem

[14] = read-out: MAOA IC50, Table 10, Source: Original data

Row | SMILES | EC50 [1] [µM] | IC50 [1] [µM] | EC50 [2] [µM] | IC50 [2] [µM] | EC50 [3] [µM] | IC50 [3] [µM] | EC50 [4] [µM] | IC50 [4] [µM] | EC50 [5] [µM] | IC50 [5] [µM] | IC50 [6] [µM] | IC50 [7] [µM] | EC50 (KvLQT1/minK) [µM] | IC50 (KvLQT1/minK) [µM] | EC50 [8] [µM] | IC50 [8] [µM] | EC50 [9] [µM] | IC50 [9] [µM] | EC50 [10] [µM] | IC50 [10] [µM] | also measured
1 | CNC(C)C(=O)c1c[nH]c2ccc(Br)cc12 (stereo not shown) [BK-5Br-NM-AMT, 1-(5-bromo-1H-indol-3-yl)-2-(methylamino) propan-1-one hydrochloride] | > 10 | > 10 | > 10 | > 10 | > 10 | > 10 | > 10 | > 10 | > 10 | > 10 | > 10 | > 10 | > 10 | > 10 | > 10 | > 10 | > 10 | > 10 | > 10 | > 10 | IC50 [11]: > 10 µM; IC50 [11, 14]: > 10 µM; IC50 [12]: > 10 µM; IC50 [13]: > 10 µM
2 | CNC(C)C(=O)c1c[nH]c2ccc(Cl)cc12 (stereo not shown) [BK-5Cl-NM-AMT, 1-(5-chloro-1H-indol-3-yl)-2-(methylamino) propan-1-one hydrochloride] | > 10 | > 10 | > 10 | > 10 | > 10 | > 10 | > 10 | > 10 | > 10 | > 10 | > 10 | > 10 | > 10 | > 10 | > 10 | > 10 | > 10 | > 10 | > 10 | > 10 | IC50 [11]: > 10 µM; IC50 [11, 14]: > 10 µM; IC50 [12]: > 10 µM; IC50 [13]: > 10 µM
3 | CNC(C)C(=O)c1c[nH]c2ccc(F)cc12 (stereo not shown) [BK-5F-NM-AMT, 1-(5-Fluoro-1H-indol-3-yl)-2-(methylamino) propan-1-one hydrochloride] | > 10 | > 10 | > 10 | > 10 | > 10 | > 10 | > 10 | > 10 | > 10 | > 10 | > 10 | > 10 | > 10 | > 10 | > 10 | > 10 | > 10 | > 10 | > 10 | > 10 | IC50 [11]: > 10 µM; MAOA inhibition (MAOI or not, in words) ([11]; original data): is not an MAOI; IC50 [11, 14]: > 10 µM; IC50 [12]: > 10 µM; IC50 [13]: > 10 µM
